How the values were obtained:
CsRpn11^Δ149–202 = target: T1, CsRpn11^Δ149–202 (Candidatus Caldarchaeum subterraneum, UniProt E6N8B9); experiment: SDS-PAGE of CsUb-pre cleavage; format: biochemical; conditions: 14 µM CsUb-pre, 1.75 µM enzyme, 45 °C, pH 7.5, 10 min preincubation; proposed coordination of catalytic Zn2+
T1 construct: gene CSUB_C1473; JAMM core domain, C-terminal residues 149-202 deleted (full length 202); N-terminal His6 tag with TEV site

CsJAMM = target: T2, CsJAMM (Candidatus Caldarchaeum subterraneum, UniProt E6N2R7); experiment: SDS-PAGE of SAMP Csub_C0702 precursor cleavage; format: biochemical; conditions: […] SAMP Csub_C0702, […] enzyme, […] °C, pH […] min preincubation
T2 construct: gene CSUB_C0703; N-terminal His6 tag with TEV site; synthetic gene, E. coli
T2 sequence (E6N2R7 1-140): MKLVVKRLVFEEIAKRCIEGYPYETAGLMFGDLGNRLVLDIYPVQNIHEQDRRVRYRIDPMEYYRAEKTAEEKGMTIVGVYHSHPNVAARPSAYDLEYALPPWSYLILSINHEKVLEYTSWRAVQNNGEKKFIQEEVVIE

[1] = target: truncated CsRpn11^Δ149–202 (Candidatus Caldiarchaeum subterraneum)
[2] = target: truncated CsRpn11^Δ149–202 (Candidatus Caldiarchaeum subterraneum); experiment: MST; 50 nM NT-647-labeled CsRpn11^Δ149–202 mixed with a serial 1:1 dilution of CsUb from 47 nM to 770 µM; 45 °C; Monolith NT.115, MST power 80%, laser intensity 40%; three independent experiments

KM of CsUb-pre cleavage by Co^2+-bound CsRpn11^Δ149–202 at 45 °C, quantified from SDS-PAGE bands [1] | Kd [2] | Molecule | SDS-PAGE of CsUb-pre cleavage (CsRpn11^Δ149–202) | SDS-PAGE of SAMP Csub_C0702 precursor cleavage (CsJAMM)
 |  | Sc1cccc2cccnc12 [8-thioquinoline] | CsUb-pre processing by CsRpn11 was strongly affected by both 8-TQ and thiolutin | effects on CsJAMM-mediated CsSAMP processing were significantly weaker
 |  | CC(=O)Nc1c2sscc-2n(C)c1=O [thiolutin] | CsUb-pre processing by CsRpn11 was strongly affected by both 8-TQ and thiolutin | effects on CsJAMM-mediated CsSAMP processing were significantly weaker
17.8 µM |  | CsUb precursor (CsUb-pre) (natural protein) |  | 
 | 14.6 µM | mature C. subterraneum ubiquitin CsUb (natural protein) |  | 

From paper PMC6043591, “Rpn11-mediated ubiquitin processing in an ancestral archaeal ubiquitination system” (Nature Communications, 2018)
